Results reported in patent US20160296658A1, “NOVEL ACTIVE INGREDIENT IN CICATRIZATION AND USE THEREOF” (LABORATOIRES URGO, priority 2007, published 2016).

Test system: normal human dermal fibroblasts (NHDF) R9PF2
Assay: NHDF proliferation by incorporation of tritiated thymidine
Format: cell-based
Conditions: dilution in culture medium at 0.011 mg/mL; 48 hours
Method: Type: pool of normal human dermal fibroblasts (NHDF) R9PF2
DMEM (Dulbecco's Modified Eagle Medium, Invitrogen 21969035)
Dressings having the size of the wells, prepared as described previously using the elastomeric masses of examples 1 to 5, and also dilutions of the Sepinov EMT 10 copolymer to 0.011 mg/mL and of potassium sucrose octasulfate to 0.00064 mg/mL, were tested.
Effects on Proliferation:
The fibroblasts were seeded into 12-well plates at low density (60% confluence), and then the cells were treated with the dilutions or pieces of dressings were applied to these plates and kept in place by means of a plug (called “test”). A control without dressing, without dilution but with plug was carried out (called “control”).
The cells were then incubated for 24 hours, 48 hours and 72 hours. For each incubation time, tritiated thymidine ([methyl-3H]-thymidine, Amersham TRK 686 2.5 μCi/mL final concentration) was added for the final 24 hours of incubation and then the DNA of the cells of the cell layers was extracted and purified and the radioactivity incorporated into the DNA was counted using a scintillation counter.
The results obtained are expressed as counts per minute (cpm), then as percentage relative to the control according to the following formula:
%control=(Cpmtest/cmpcontrol)×100 […]

O=S(=O)([O-])OC[C@H]1O[C@@](COS(=O)(=O)[O-])(O[C@H]2O[C@H](COS(=O)(=O)[O-])[C@@H](OS(=O)(=O)[O-])[C@H](OS(=O)(=O)[O-])[C@H]2OS(=O)(=O)[O-])[C@@H](OS(=O)(=O)[O-])[C@@H]1OS(=O)(=O)[O-].[K+].[K+].[K+].[K+].[K+].[K+].[K+].[K+] [Potassium sucrose octasulfate, potassium sucrose octasulfate]
NHDF proliferation, % control: 106 % control
